{"source": "ChEMBL document CHEMBL4000182", "about": "“Structure-activity relationships of benzothiazole GPR35 antagonists” (Bioorg Med Chem Lett, 2017)", "key": {"[1]": {"target": "T1, G-protein coupled receptor 35 (Homo sapiens, UniProt Q9HC97)", "T1 sequence (Q9HC97 whole entry, the tested form may be a part)": "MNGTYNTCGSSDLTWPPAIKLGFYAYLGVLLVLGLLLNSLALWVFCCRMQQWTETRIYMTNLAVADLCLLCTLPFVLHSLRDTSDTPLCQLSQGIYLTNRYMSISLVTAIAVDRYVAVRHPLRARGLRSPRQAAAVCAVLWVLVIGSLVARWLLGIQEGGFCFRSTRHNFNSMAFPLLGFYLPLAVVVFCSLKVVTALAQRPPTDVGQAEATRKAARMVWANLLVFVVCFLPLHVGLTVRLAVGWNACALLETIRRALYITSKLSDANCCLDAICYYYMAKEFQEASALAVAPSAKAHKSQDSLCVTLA", "assay": "Antagonist activity at human N-terminal HA-tagged GPR35a expressed in human U2OS cells co-expressing GFP-fused beta arrestin-2 assessed as inhibition of agonist induced redistribution of GFP-fused beta arrestin-2 preincubated for 15 mins followed by agonist addition by fluorescence assay", "type": "cell-based"}, "[2]": {"target": "T1, G-protein coupled receptor 35", "assay": "Antagonist activity at HA tagged GPR35a (unknown origin) expressed in human U2OS cells co-expressing GFP-fused beta arrestin-2 assessed as inhibition of zaprinast induced effect", "type": "cell-based"}, "[3]": {"target": "T1, G-protein coupled receptor 35", "assay": "Antagonist activity at GPR35 (unknown origin)"}}}
{"smiles": "O=C(Nc1ccc2nc(SCc3ccc(Cl)cc3)sc2c1)c1ccccc1C(=O)N1CCOCC1", "values": [{"measurement": "EC50", "setting": "[1]", "value": 0.55, "unit": "µM"}, {"measurement": "IC50", "setting": "[2]", "value": 4.56, "unit": "µM"}]}
{"smiles": "O=C(Nc1ccc2nc(SCc3ccccc3)sc2c1)c1ccccc1C(=O)N1CCOCC1", "values": [{"measurement": "IC50", "setting": "[2]", "value": 7.23, "unit": "µM"}]}
{"smiles": "O=C(Nc1ccc2nc([S+]([O-])Cc3ccc(Cl)cc3)sc2c1)c1ccccc1C(=O)N1CCOCC1", "note": "(stereo not drawn)", "values": [{"measurement": "IC50", "setting": "[2]", "value": 13, "unit": "µM"}]}
{"smiles": "O=C(Nc1ccc2nc(SCc3ccc(Cl)cc3)sc2c1)c1ccccc1C(=O)N1CCCCC1", "values": [{"measurement": "IC50", "setting": "[2]", "value": "> 30", "unit": "µM"}]}
{"smiles": "O=C(Nc1ccc2nc([S@+]([O-])Cc3ccc(Cl)cc3)sc2c1)c1ccccc1C(=O)N1CCOCC1", "values": [{"measurement": "IC50", "setting": "[2]", "value": "> 30", "unit": "µM"}]}
{"smiles": "CC(Sc1nc2ccc(NC(=O)c3ccccc3C(=O)N3CCOCC3)cc2s1)c1ccc(Cl)cc1", "note": "(stereo not drawn)", "values": [{"measurement": "IC50", "setting": "[2]", "value": 17, "unit": "µM"}]}
{"smiles": "O=C(Nc1ccc2nc(S(=O)(=O)Cc3ccc(Cl)cc3)sc2c1)c1ccccc1C(=O)N1CCOCC1", "values": [{"measurement": "IC50", "setting": "[2]", "value": 5.24, "unit": "µM"}]}
{"smiles": "O=C(Nc1ccc2nc(SCc3ccncc3)sc2c1)c1ccccc1C(=O)N1CCOCC1", "values": [{"measurement": "IC50", "setting": "[2]", "value": "> 30", "unit": "µM"}]}
{"smiles": "O=C(Nc1ccc2nc(SCc3ccc(Cl)cc3)sc2c1)c1ccccc1C(=O)N1CCCC1", "values": [{"measurement": "IC50", "setting": "[2]", "value": "> 30", "unit": "µM"}]}
{"smiles": "O=C(Nc1ccc2nc([S@@+]([O-])Cc3ccc(Cl)cc3)sc2c1)c1ccccc1C(=O)N1CCOCC1", "values": [{"measurement": "IC50", "setting": "[2]", "value": "> 30", "unit": "µM"}]}
{"smiles": "O=C(Nc1ccc2nc(SCc3ccc(Cl)cc3)[nH]c2c1)c1ccccc1C(=O)N1CCOCC1", "values": [{"measurement": "IC50", "setting": "[2]", "value": "> 30", "unit": "µM"}]}
{"smiles": "O=C(O)c1cc(=O)c2ccccc2[nH]1", "note": "[TRANSTORINE]", "values": [{"measurement": "IC50", "setting": "[3]", "value": 39, "unit": "µM"}]}
